Source: PMC9833666, “Designing and identifying β-hairpin peptide macrocycles with antibiotic potential” (Science Advances, 2023)
Read-outs that look alike come from different tables or passages of the source. Bridge positions count the residues as written; N and C are the ends. Peptide text beside a SMILES is read from it.

Tested on: Escherichia coli W3110
Format: cell-based
Conditions: for Ec W3110 MIC MH: E. coli W3110, MH medium; for Ec W3110 MIC RPMI: E. coli W3110, RPMI medium
Experimental: MICs were performed by a modifiedClinical and Laboratory Standards Institute) procedure. […] Separately, E. coli W3110 or A. baumannii AB5075 was grown overnight in 5 ml of standard MH at 37°C. Cells from these cultures were diluted to a concentration of 5 × 10^5 to 6 × 10^5 cells/ml in either standard MH, MHII, RPMI, or fetal bovine serum, and 90 μl was added to each well of the 96-well plate containing diluted peptide. Plates were wrapped twice in parafilm and incubated at 37°C for 18 to 24 hours. Wells were examined by eye against wells with no bacteria for signs of growth. MICs were reported as the minimum concentration with no observable growth. In cases where triplicate samples differed, the concentration supported by the median of the three replicates was reported.

## CC[C@H](C)[C@@H]1NC(=O)[C@H](CCCCN)NC(=O)[C@H]([C@@H](C)CC)NC(=O)[C@H](CCCNC(=N)N)NC(=O)[C@@H](N)CSSC[C@@H](C(=O)O)NC(=O)[C@H](CCC(N)=O)NC(=O)[C@H](C(C)C)NC(=O)[C@H](CCC(N)=O)NC(=O)[C@H](CC(C)C)NC(=O)[C@H](CCCCN)NC(=O)[C@H](CC(C)C)NC(=O)[C@H](CCCNC(=N)N)NC(=O)[C@H](CCCNC(=N)N)NC(=O)[C@H](CO)NC(=O)CNC(=O)[C@H](CC(=O)O)NC(=O)[C@H](CC(N)=O)NC(=O)[C@H](C(C)C)NC(=O)[C@H](CC(N)=O)NC1=O [SySA-8] (H-CRIKINVNDGSRRLKLQVQC-OH; disulfide 1-20; N-terminus and C-terminus assumed)
  Ec W3110 MIC MH: 256 µg/mL
  Ec W3110 MIC RPMI: 256 µg/mL
W3110
  W3110 MIC MH: 256 µg/mL
  W3110 MIC RPMI: 256 µg/mL

## CC[C@H](C)[C@@H]1NC(=O)[C@H](CCCCN)NC(=O)[C@H](CC(C)C)NC(=O)CNC(=O)[C@H](CCCNC(=N)N)NC(=O)[C@H](CCCNC(=N)N)NC(=O)[C@H](CCCNC(=N)N)NC(=O)[C@H](CC(N)=O)NC(=O)[C@H](CC(N)=O)NC(=O)[C@H](CC(C)C)NC(=O)[C@H](CCCNC(=N)N)NC(=O)[C@H](C(C)C)NC(=O)[C@H](CCCNC(=N)N)NC(=O)[C@H](C(C)C)NC(=O)[C@@H](N)CSSC[C@@H](C(=O)O)NC(=O)[C@H](C(C)C)NC(=O)[C@H](CCC(N)=O)NC(=O)[C@H](CC(C)C)NC(=O)[C@H](CO)NC1=O [SySA-9] (H-CVRVRLNNRRRGLKISLQVC-OH; disulfide 1-20; N-terminus and C-terminus assumed)
  Ec W3110 MIC MH: 128 µg/mL
  Ec W3110 MIC RPMI: 8 µg/mL
E. coli W3110, standard Mueller-Hinton broth, 37°C, 18-24 h, median of n=3
  W3110 MIC MH: 128 µg/mL
W3110
  W3110 MIC RPMI: 8 µg/mL

## CC[C@H](C)[C@@H]1NC(=O)[C@H](CCCNC(=N)N)NC(=O)[C@H](C(C)C)NC(=O)[C@H](CCCNC(=N)N)NC(=O)[C@H](CCCNC(=N)N)NC(=O)[C@H](CCCNC(=N)N)NC(=O)[C@H](CCCNC(=N)N)NC(=O)[C@H](CC(N)=O)NC(=O)[C@H](CC(N)=O)NC(=O)[C@H](C(C)C)NC(=O)[C@H](CCCNC(=N)N)NC(=O)[C@H](C(C)C)NC(=O)[C@H]([C@@H](C)O)NC(=O)[C@H](C(C)C)NC(=O)[C@@H](N)CSSC[C@@H](C(=O)O)NC(=O)[C@H](C(C)C)NC(=O)[C@H](CCC(N)=O)NC(=O)[C@H](C(C)C)NC(=O)[C@H](CO)NC1=O [SySA-11] (H-CVTVRVNNRRRRVRISVQVC-OH; disulfide 1-20; N-terminus and C-terminus assumed)
  Ec W3110 MIC MH: 64 µg/mL
  Ec W3110 MIC RPMI: 16 µg/mL
W3110
  W3110 MIC MH: 64 µg/mL
  W3110 MIC RPMI: 16 µg/mL

## CC(C)C[C@@H]1NC(=O)[C@H](CCCNC(=N)N)NC(=O)[C@H](CCCNC(=N)N)NC(=O)[C@H](CCCNC(=N)N)NC(=O)[C@H](CCCNC(=N)N)NC(=O)[C@H](CC(N)=O)NC(=O)[C@H](CC(N)=O)NC(=O)[C@H](CC(C)C)NC(=O)[C@H](CCCNC(=N)N)NC(=O)[C@H](C(C)C)NC(=O)[C@H](CCCNC(=N)N)NC(=O)[C@H](C(C)C)NC(=O)[C@@H](N)CSSC[C@@H](C(=O)O)NC(=O)[C@H](C(C)C)NC(=O)[C@H](CCC(=O)O)NC(=O)[C@H](CC(C)C)NC(=O)[C@H](CO)NC(=O)[C@H](C(C)C)NC(=O)[C@H](CCCCN)NC1=O [SySA-16] (H-CVRVRLNNRRRRLKVSLEVC-OH; disulfide 1-20; N-terminus and C-terminus assumed)
  Ec W3110 MIC MH: 32 µg/mL
  Ec W3110 MIC RPMI: 32 µg/mL
W3110
  W3110 MIC MH: 32 µg/mL
  W3110 MIC RPMI: 32 µg/mL

## CC(C)C[C@@H]1NC(=O)CNC(=O)[C@H](CCCNC(=N)N)NC(=O)[C@H](CCCNC(=N)N)NC(=O)[C@H](CCCNC(=N)N)NC(=O)[C@H](CC(N)=O)NC(=O)[C@H](CC(N)=O)NC(=O)[C@H](CC(C)C)NC(=O)[C@H](CCCNC(=N)N)NC(=O)[C@H](C(C)C)NC(=O)[C@H](CCCNC(=N)N)NC(=O)[C@H](CC(C)C)NC(=O)[C@@H](N)CSSC[C@@H](C(=O)O)NC(=O)[C@H](C(C)C)NC(=O)[C@H](CCC(N)=O)NC(=O)[C@H](C(C)C)NC(=O)[C@H](CO)NC(=O)[C@H](C(C)C)NC(=O)[C@H](CCCCN)NC1=O [SySA-17] (H-CLRVRLNNRRRGLKVSVQVC-OH; disulfide 1-20; N-terminus and C-terminus assumed)
  Ec W3110 MIC MH: 64 µg/mL
  Ec W3110 MIC RPMI: 32 µg/mL
W3110
  W3110 MIC MH: 64 µg/mL
  W3110 MIC RPMI: 32 µg/mL

## CC(C)C[C@@H]1NC(=O)[C@H](CCCNC(=N)N)NC(=O)[C@H](C(C)C)NC(=O)[C@H](CCCNC(=N)N)NC(=O)[C@H](CC(C)C)NC(=O)[C@@H](N)CSSC[C@@H](C(=O)O)NC(=O)[C@H](C(C)C)NC(=O)[C@H](CCC(N)=O)NC(=O)[C@H](C(C)C)NC(=O)[C@H](CO)NC(=O)[C@H](C(C)C)NC(=O)[C@H](CCCCN)NC(=O)[C@H](C(C)C)NC(=O)CNC(=O)[C@H](CCCNC(=N)N)NC(=O)[C@H](CCCNC(=N)N)NC(=O)[C@H](CCCNC(=N)N)NC(=O)[C@H](CC(N)=O)NC(=O)[C@H](CC(N)=O)NC1=O [SySA-25] (H-CLRVRLNNRRRGVKVSVQVC-OH; disulfide 1-20; N-terminus and C-terminus assumed)
  Ec W3110 MIC MH: 64 µg/mL
  Ec W3110 MIC RPMI: 8 µg/mL
W3110
  W3110 MIC MH: 64 µg/mL
  W3110 MIC RPMI: 8 µg/mL

## CC[C@H](C)[C@@H]1NC(=O)[C@H](CCCNC(=N)N)NC(=O)[C@H](CC(C)C)NC(=O)CNC(=O)CNC(=O)CNC(=O)[C@H](CCCNC(=N)N)NC(=O)[C@H](CC(N)=O)NC(=O)[C@H](CC(N)=O)NC(=O)[C@H](CC(C)C)NC(=O)[C@H](CCCNC(=N)N)NC(=O)[C@H](C(C)C)NC(=O)[C@H](CCCNC(=N)N)NC(=O)[C@H](C(C)C)NC(=O)[C@@H](N)CSSC[C@@H](C(=O)O)NC(=O)[C@H](C(C)C)NC(=O)[C@H](CCC(N)=O)NC(=O)[C@H](CC(C)C)NC(=O)[C@H]([C@@H](C)O)NC1=O [SySA-27] (H-CVRVRLNNRGGGLRITLQVC-OH; disulfide 1-20; N-terminus and C-terminus assumed)
  Ec W3110 MIC MH: 256 µg/mL
  Ec W3110 MIC RPMI: 64 µg/mL
W3110
  W3110 MIC MH: 256 µg/mL
  W3110 MIC RPMI: 64 µg/mL

## CC[C@H](C)[C@@H]1NC(=O)[C@H](CCCNC(=N)N)NC(=O)[C@H](CC(C)C)NC(=O)[C@@H](N)CSSC[C@@H](C(=O)O)NC(=O)[C@H](C(C)C)NC(=O)[C@H](CCC(N)=O)NC(=O)[C@H](CC(C)C)NC(=O)[C@H](CO)NC(=O)[C@H](C(C)C)NC(=O)[C@H](CCCCN)NC(=O)[C@H](CC(C)C)NC(=O)CNC(=O)[C@H](CCCNC(=N)N)NC(=O)[C@H](CCCNC(=N)N)NC(=O)[C@H](CCCNC(=N)N)NC(=O)[C@H](CC(N)=O)NC(=O)[C@H](CC(N)=O)NC(=O)[C@H](CC(C)C)NC(=O)[C@H](CCCNC(=N)N)NC1=O [SySA-30] (H-CLRIRLNNRRRGLKVSLQVC-OH; disulfide 1-20; N-terminus and C-terminus assumed)
  Ec W3110 MIC MH: 64 µg/mL
  Ec W3110 MIC RPMI: 8 µg/mL
W3110
  W3110 MIC MH: 64 µg/mL
  W3110 MIC RPMI: 8 µg/mL

## CC[C@H](C)[C@@H]1NC(=O)[C@H](CC(N)=O)NC(=O)[C@H](C(C)C)NC(=O)[C@H](CCCCN)NC(=O)[C@H]([C@@H](C)CC)NC(=O)[C@H](CCCNC(=N)N)NC(=O)[C@@H](N)CSSC[C@@H](C(=O)O)NC(=O)[C@H](CCC(N)=O)NC(=O)[C@H](CC(C)C)NC(=O)[C@H](CCC(N)=O)NC(=O)[C@H](CC(C)C)NC(=O)[C@H](CCCCN)NC(=O)[C@H](C(C)C)NC(=O)[C@H](CCCNC(=N)N)NC(=O)[C@H](CCCNC(=N)N)NC(=O)[C@H](CCCNC(=N)N)NC(=O)CNC(=O)[C@H](CC(N)=O)NC(=O)[C@H](CC(N)=O)NC1=O [SySA-34] (H-CRIKVNINNGRRRVKLQLQC-OH; disulfide 1-20; N-terminus and C-terminus assumed)
  Ec W3110 MIC MH: 128 µg/mL
  Ec W3110 MIC RPMI: 32 µg/mL
W3110
  W3110 MIC MH: 128 µg/mL
  W3110 MIC RPMI: 32 µg/mL

## CC[C@H](C)[C@@H]1NC(=O)[C@H](CCCNC(=N)N)NC(=O)[C@H](C(C)C)NC(=O)[C@@H](N)CSSC[C@@H](C(=O)O)NC(=O)[C@H](C(C)C)NC(=O)[C@H](CCC(=O)O)NC(=O)[C@H](CC(C)C)NC(=O)[C@H](CO)NC(=O)[C@H](C(C)C)NC(=O)[C@H](CCCCN)NC(=O)[C@H](C(C)C)NC(=O)[C@H](CCCNC(=N)N)NC(=O)[C@H](CCCNC(=N)N)NC(=O)[C@H](CCCNC(=N)N)NC(=O)[C@H](CCCNC(=N)N)NC(=O)[C@H](CC(N)=O)NC(=O)[C@H](CC(N)=O)NC(=O)[C@H](CC(C)C)NC(=O)[C@H](CCCNC(=N)N)NC1=O [SySA-37] (H-CVRIRLNNRRRRVKVSLEVC-OH; disulfide 1-20; N-terminus and C-terminus assumed)
  Ec W3110 MIC MH: 32 µg/mL
  Ec W3110 MIC RPMI: 8 µg/mL
W3110
  W3110 MIC MH: 32 µg/mL
  W3110 MIC RPMI: 8 µg/mL

## CC[C@H](C)[C@@H]1NC(=O)[C@H](CCCNC(=N)N)NC(=O)[C@H](C(C)C)NC(=O)[C@@H](N)CSSC[C@@H](C(=O)O)NC(=O)[C@H](C(C)C)NC(=O)[C@H](CCC(N)=O)NC(=O)[C@H](CC(C)C)NC(=O)[C@H](CO)NC(=O)[C@H](C(C)C)NC(=O)[C@H](CCCCN)NC(=O)[C@H](C(C)C)NC(=O)CNC(=O)[C@H](CO)NC(=O)[C@H](CCCNC(=N)N)NC(=O)[C@H](CCCNC(=N)N)NC(=O)[C@H](CC(N)=O)NC(=O)[C@H](CC(N)=O)NC(=O)[C@H](C(C)C)NC(=O)[C@H](CCCNC(=N)N)NC1=O [SySA-38] (H-CVRIRVNNRRSGVKVSLQVC-OH; disulfide 1-20; N-terminus and C-terminus assumed)
  Ec W3110 MIC MH: 256 µg/mL
  Ec W3110 MIC RPMI: 8 µg/mL
W3110
  W3110 MIC MH: 256 µg/mL
  W3110 MIC RPMI: 8 µg/mL

## CC[C@H](C)[C@@H]1NC(=O)[C@H](CCCNC(=N)N)NC(=O)[C@H](C(C)C)NC(=O)[C@@H](N)CSSC[C@@H](C(=O)O)NC(=O)[C@H](C(C)C)NC(=O)[C@H](CCC(N)=O)NC(=O)[C@H](CC(C)C)NC(=O)[C@H](CO)NC(=O)[C@H](C(C)C)NC(=O)[C@H](CCCCN)NC(=O)[C@H](CC(C)C)NC(=O)CNC(=O)[C@H](CCCNC(=N)N)NC(=O)[C@H](CCCNC(=N)N)NC(=O)[C@H](CCCNC(=N)N)NC(=O)[C@H](CC(N)=O)NC(=O)[C@H](CC(N)=O)NC(=O)[C@H](CC(C)C)NC(=O)[C@H](CCCNC(=N)N)NC1=O [SySA-40] (H-CVRIRLNNRRRGLKVSLQVC-OH; disulfide 1-20; N-terminus and C-terminus assumed)
  Ec W3110 MIC MH: 32 µg/mL
  Ec W3110 MIC RPMI: 8 µg/mL
W3110
  W3110 MIC MH: 32 µg/mL
  W3110 MIC RPMI: 8 µg/mL
